Values of other authors in patent US20240401031A1, “Platform Using iPSC-Derived Cardiomyocytes Carrying Gene Variants as Models of Cardiac Disease and Drug-Response” (SRI INTERNATIONAL, priority 2021, published 2024).

Conditions: source CredibleMeds

Structure (SMILES)	Risk (Torsade de Pointes)
Cl.Cl.OCCN1CCN(CCC=C2c3ccccc3Sc3ccc(C(F)(F)F)cc32)CC1 (mixture of isomers) [Flupentixol]	(PR)
C[C@]12CC[C@H](O)CC1=CC[C@@H]1[C@@H]2CC[C@]2(C)C(c3cccnc3)=CC[C@@H]12 [Abiraterone]	(CR)
COc1cc2nc(N(C)CCCNC(=O)C3CCCO3)nc(N)c2cc1OC (stereo not drawn) [Alfuzosin]	(PR)
CCCCc1oc2ccccc2c1C(=O)c1cc(I)c(OCCN(CC)CC)c(I)c1 [Amiodarone]	(KR)
CCN1CCCC1CNC(=O)c1cc(S(=O)(=O)CC)c(N)cc1OC (stereo not drawn) [Amisulpride]	(CR)
CN(C)CCC=C1c2ccccc2CCc2ccccc21 [Amitriptyline]	(CR)
CC(N)Cc1ccccc1 (stereo not drawn) [Amphetamine]	(SR)
O=C1CN2Cc3c(ccc(Cl)c3Cl)N=C2N1 [Anagrelide]	(KR)
CNC(=O)c1ccc(N2C(=S)N(c3cnc(C#N)c(C(F)(F)F)c3)C(=O)C23CCC3)cc1F [Apalutamide]	(PR)
CN1CCc2cccc3c2[C@H]1Cc1ccc(O)c(O)c1-3 [Apomorphine]	(PR)
O=C1CCc2ccc(OCCCCN3CCN(c4cccc(Cl)c4Cl)CC3)cc2N1 [Aripiprazole]	(PR)
[As] [Arsenic]	(KR)
CN1CC2c3ccccc3Oc3ccc(Cl)cc3C2C1 (stereo not drawn) [Asenapine]	(PR)
COc1ccc(CCN2CCC(Nc3nc4ccccc4n3Cc3ccc(F)cc3)CC2)cc1 [Astemizole]	(KR)
COC(=O)N[C@H](C(=O)N[C@@H](Cc1ccccc1)[C@@H](O)CN(Cc1ccc(-c2ccccn2)cc1)NC(=O)[C@@H](NC(=O)OC)C(C)(C)C)C(C)(C)C [Atazanavir]	(CR)
CNCC[C@@H](Oc1ccccc1C)c1ccccc1 [Atomoxetine]	(PR)
CC[C@H]1OC(=O)[C@H](C)[C@@H](O[C@H]2C[C@@](C)(OC)[C@@H](O)[C@H](C)O2)[C@H](C)[C@@H](O[C@@H]2O[C@H](C)C[C@H](N(C)C)[C@H]2O)[C@](C)(O)C[C@@H](C)CN(C)[C@H](C)[C@@H](O)[C@]1(C)O [Azithromycin]	(KR)
Cn1c(CCCC(=O)O)nc2cc(N(CCCl)CCCl)ccc21 [Bendamustine]	(PR)
NS(=O)(=O)c1cc2c(cc1C(F)(F)F)NC(Cc1ccccc1)NS2(=O)=O (stereo not drawn) [Bendroflumethiazide]	(CR)
C[C@@H](Cc1ccccc1)N(C)Cc1ccccc1 [Benzphetamine]	(SR)
CC(C)COCC(CN(Cc1ccccc1)c1ccccc1)N1CCCC1 (stereo not drawn) [Bepridil]	(KR)
COc1ccc(NC(=O)c2ccc(C(=N)N(C)C)cc2)c(C(=O)Nc2ccc(Cl)cn2)c1 [Betrixaban]	(PR)
CC(O)(CS(=O)(=O)c1ccc(F)cc1)C(=O)Nc1ccc(C#N)c(C(F)(F)F)c1 (stereo not drawn) [Bicalutamide]	(PR)
CC(C)C[C@H](NC(=O)[C@H](Cc1ccccc1)NC(=O)c1cnccn1)B(O)O [Bortezomib]	(PR)
COc1cc(Nc2c(C#N)cnc3cc(OCCCN4CCN(C)CC4)c(OC)cc23)c(Cl)cc1Cl [Bosutinib]	(PR)
COc1cc2nccc(Oc3ccc(NC(=O)C4(C(=O)Nc5ccc(F)cc5)CC4)cc3)c2cc1OC [Cabozantinib]	(PR)
CCCCCOC(=O)Nc1nc(=O)n([C@@H]2O[C@H](C)[C@@H](O)[C@H]2O)cc1F [Capecitabine]	(PR)
